ChEMBL document CHEMBL1914304 (J Med Chem, 2011)

How the values were obtained:
Raji = test: Cytotoxicity against human Raji cells after 72 hrs by luminescence assay; format: cell-based
BJ = test: Cytotoxicity against human BJ cells after 72 hrs by luminescence assay; format: cell-based
HepG2 = test: Cytotoxicity against human HepG2 cells after 72 hrs by luminescence assay; format: cell-based; conditions: hepg2, 72 h
[1] = Selectivity ratio of EC50 for human HepG2 cells to EC50 for Plasmodium falciparum
HEK293 = test: Cytotoxicity against human HEK293 cells after 72 hrs by luminescence assay; format: cell-based; conditions: hek293, 72 h

Compound	Activity (Raji)	Activity (BJ)	Activity (HepG2)	selectivity ratio [1]	Activity (HEK293)
Cl.O=C(CCc1ccccc1)c1ccccc1OCC(O)CN1CCN(Cc2ccccc2)CC1 (racemic)	Non-toxic	Non-toxic	Non-toxic	> 10	Non-toxic
Cc1ccccc1N1CCN(CC(O)COc2ccccc2C(=O)CCc2ccccc2)CC1.Cl (racemic)	Non-toxic	Non-toxic	Non-toxic	> 10	Non-toxic
Cc1cccc(N2CCN(CC(O)COc3ccccc3C(=O)CCc3ccccc3)CC2)c1.Cl (racemic)	Non-toxic	Non-toxic	Non-toxic	> 10	Non-toxic
COc1ccccc1N1CCN(CC(O)COc2ccccc2C(=O)CCc2ccccc2)CC1.Cl (racemic)	Non-toxic	Non-toxic	Non-toxic	> 10	Non-toxic
COc1cccc(N2CCN(CC(O)COc3ccccc3C(=O)CCc3ccccc3)CC2)c1.Cl (racemic)	Non-toxic	Non-toxic	Non-toxic	> 10	Non-toxic
COc1ccc(N2CCN(CC(O)COc3ccccc3C(=O)CCc3ccccc3)CC2)cc1.Cl (racemic)	Non-toxic	Non-toxic	Non-toxic	> 10	Non-toxic
Cl.O=C(CCc1ccccc1)c1ccccc1OCC(O)CN1CCN(c2ccccc2Cl)CC1 (racemic)	Non-toxic	Non-toxic	Non-toxic	> 10	Non-toxic
Cl.O=C(CCc1ccccc1)c1ccccc1OCC(O)CN1CCN(c2ccc(Cl)cc2)CC1 (racemic)	Non-toxic	Non-toxic	Non-toxic	> 10	Non-toxic
Cl.O=C(CCc1ccccc1)c1ccccc1OCC(O)CN1CCN(c2ccc(Cl)c(Cl)c2)CC1 (racemic)	Non-toxic	Non-toxic	Non-toxic	> 10	Non-toxic
Cl.O=C(CCc1ccccc1)c1ccccc1OCC(O)CN1CCN(c2ccccc2F)CC1 (racemic)	Non-toxic	Non-toxic	Non-toxic	> 10	Non-toxic
Cl.O=C(CCc1ccccc1)c1ccccc1OCC(O)CN1CCN(c2ccc(F)cc2)CC1 (racemic)	Non-toxic	Non-toxic	Non-toxic	> 10	Non-toxic
Cl.O=C(CCc1ccccc1)c1ccccc1OCC(O)CN1CCN(c2ccc([N+](=O)[O-])cc2)CC1 (racemic)	Non-toxic	Non-toxic	Non-toxic	> 10	Non-toxic
Cl.Nc1ccc(N2CCN(CC(O)COc3ccccc3C(=O)CCc3ccccc3)CC2)cc1 (racemic)	Non-toxic	Non-toxic	Non-toxic	> 10	Non-toxic
Cl.O=C(CCc1ccccc1)c1ccccc1OCC(O)CN1CCN(c2ccc(O)cc2)CC1 (racemic)	Non-toxic	Non-toxic	Non-toxic	> 10	Non-toxic
Cl.O=C(CCc1ccccc1)c1ccccc1OCC(O)CN1CCN(c2ccc(C(F)(F)F)cc2)CC1 (racemic)	Non-toxic	Non-toxic	Non-toxic	> 10	Non-toxic
Cl.O=C(CCc1ccccc1)c1ccccc1OCC(O)CN1CCN(C(=O)c2ccccc2)CC1 (racemic)	Non-toxic	Non-toxic	Non-toxic	> 10	Non-toxic
CN1CCN(CC(O)COc2ccccc2C(=O)CCc2ccccc2)CC1.Cl (racemic)	Non-toxic	Non-toxic	Non-toxic	> 10	Non-toxic
CCN1CCN(CC(O)COc2ccccc2C(=O)CCc2ccccc2)CC1.Cl (racemic)	Non-toxic	Non-toxic	Non-toxic	> 10	Non-toxic
Cl.O=C(CCc1ccccc1)c1ccccc1OCC(O)CN1CCOCC1 (racemic)	Non-toxic	Non-toxic	Non-toxic	> 10	Non-toxic

Compound	Activity (Raji)	Activity (BJ)	Activity (HepG2)	selectivity ratio [1]	Activity (HEK293)
Cc1cccc([N+]2(c3ccccc3)CCN(CC(O)COc3ccccc3C(=O)CCc3ccc(F)cc3)CC2)c1.[Cl-] (racemic)	Non-toxic	Non-toxic	Non-toxic	> 10	Non-toxic
Cl.O=C(CCc1ccc(F)cc1)c1ccccc1OCC(O)CN1CCCCC1 (racemic)	Non-toxic	Non-toxic	Non-toxic	> 10	Non-toxic
Cl.O=C(CCc1ccc(F)cc1)c1ccccc1OCC(O)CN1CCC(c2ccccc2)CC1 (racemic)	Non-toxic	Non-toxic	Non-toxic	> 10	Non-toxic
Cl.O=C(CCc1ccc(F)cc1)c1ccccc1OCC(O)CN1CCC(Cc2ccccc2)CC1 (racemic)	Non-toxic	Non-toxic	Non-toxic	> 10	Non-toxic
Cl.O=C(CCc1ccc(F)cc1)c1ccccc1OCC(O)CN1CCC(c2ccc(Cl)cc2)CC1 (racemic)	Non-toxic	Non-toxic	Non-toxic	> 10	Non-toxic
Cl.O=C(CCc1ccc(F)cc1)c1ccccc1OCC(O)CN1CCC(O)(Cc2ccccc2)CC1 (racemic)	Non-toxic	Non-toxic	Non-toxic	> 10	Non-toxic
Cl.O=C(CCc1ccc(F)cc1)c1ccccc1OCC(O)CN1CCC(O)(c2ccc(Cl)cc2)CC1 (racemic)	Non-toxic	Non-toxic	Non-toxic	> 10	Non-toxic
Cl.O=C(CCc1ccc(F)cc1)c1ccccc1OCC(O)CN1CCN(c2ccccc2)CC1 (racemic)	Non-toxic	Non-toxic	Non-toxic	> 10	Non-toxic
Cl.O=C(CCc1ccc(F)cc1)c1ccccc1OCC(O)CN1CCN(Cc2ccccc2)CC1 (racemic)	Non-toxic	Non-toxic	Non-toxic	> 10	Non-toxic
Cc1ccccc1N1CCN(CC(O)COc2ccccc2C(=O)CCc2ccc(F)cc2)CC1.Cl (racemic)	Non-toxic	Non-toxic	Non-toxic	> 10	Non-toxic
Cc1cccc(N2CCN(CC(O)COc3ccccc3C(=O)CCc3ccc(F)cc3)CC2)c1.Cl (racemic)	Non-toxic	Non-toxic	Non-toxic	> 10	Non-toxic
Cc1ccc(N2CCN(CC(O)COc3ccccc3C(=O)CCc3ccc(F)cc3)CC2)cc1.Cl (racemic)	Non-toxic	Non-toxic	Non-toxic	> 10	Non-toxic
COc1ccccc1N1CCN(CC(O)COc2ccccc2C(=O)CCc2ccc(F)cc2)CC1.Cl (racemic)	Non-toxic	Non-toxic	Non-toxic	> 10	Non-toxic
COc1cccc(N2CCN(CC(O)COc3ccccc3C(=O)CCc3ccc(F)cc3)CC2)c1.Cl (racemic)	Non-toxic	Non-toxic	Non-toxic	> 10	Non-toxic
COc1ccc(N2CCN(CC(O)COc3ccccc3C(=O)CCc3ccc(F)cc3)CC2)cc1.Cl (racemic)	Non-toxic	Non-toxic	Non-toxic	> 10	Non-toxic
Cl.O=C(CCc1ccc(F)cc1)c1ccccc1OCC(O)CN1CCN(c2ccccc2Cl)CC1 (racemic)	Non-toxic	Non-toxic	Non-toxic	> 10	Non-toxic
Cl.O=C(CCc1ccc(F)cc1)c1ccccc1OCC(O)CN1CCN(c2ccc(Cl)cc2)CC1 (racemic)	Non-toxic	Non-toxic	Non-toxic	> 10	Non-toxic
Cl.O=C(CCc1ccc(F)cc1)c1ccccc1OCC(O)CN1CCN(c2ccc(Cl)c(Cl)c2)CC1 (racemic)	Non-toxic	Non-toxic	Non-toxic	> 10	Non-toxic
Cl.O=C(CCc1ccc(F)cc1)c1ccccc1OCC(O)CN1CCN(c2ccccc2F)CC1 (racemic)	Non-toxic	Non-toxic	Non-toxic	> 10	Non-toxic
